Test results from PubChem BioAssay AID248 (DTP/NCI, 2004).
Toxic doses and inconclusive results are not listed.

Test system: L1210 leukemia ip in BDF1 mice, survival T/C
Test: NCI In Vivo Anticancer Drug Screen. Data for tumor model L1210 Leukemia (intraperitoneal) in B6D2F1 (BDF1) mice
Settings: endpoint: mean survival time, higher = longer survival
Outline: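 Tumor cells were implanted, animals were treated, and survival was followed. The result divides the treated measurement by the vehicle-control measurement.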

How did the T/C (dose: 75.0 mg/kg/injection, schedule: Q01DX001 (ip), vehicle: other) turn out when `COc1ccc(-c2n[nH]c(C(F)(F)F)c2N=NN(C)C)cc1OC` was run?
The T/C was 93 % of control.

And the T/C (dose: 150.0 mg/kg/injection, schedule: Q01DX001 (ip), vehicle: other)?
Its T/C is 94 % of control.

And the T/C (dose: 300.0 mg/kg/injection, schedule: Q01DX001 (ip), vehicle: other)?
Its T/C is 91 % of control.

What does the source list for `O=C(CCC(=O)[O][Sn]([c]1ccccc1)([c]1ccccc1)[c]1ccccc1)[O][Sn]([c]1ccccc1)([c]1ccccc1)[c]1ccccc1`?
T/C (dose: 1.56 mg/kg/injection, schedule: Q01DX009 (ip), vehicle: saline with Tween-80): 93 % of control; T/C (dose: 3.12 mg/kg/injection, schedule: Q01DX009 (ip), vehicle: saline with Tween-80): 90 % of control; T/C (dose: 6.25 mg/kg/injection, schedule: Q04DX003 (ip), vehicle: saline with Tween-80): 95 % of control; T/C (dose: 12.5 mg/kg/injection, schedule: Q01DX001 (ip), vehicle: saline): 104 % of control; T/C (dose: 25.0 mg/kg/injection, schedule: Q01DX001 (ip), vehicle: saline): 91 % of control

With `CCC(C)C1NC(=O)C(C(C)=O)=C1O.[Cu+2]` (centres undefined) as the compound, how does the T/C (dose: 150.0 mg/kg/injection, schedule: Q01DX001 (ip), vehicle: carboxymethylcellulose (CMC)) read?
Its T/C is 105 % of control.

`Clc1ncnc2ccccc12` was tested. Which T/C (dose: 100.0 mg/kg/injection, schedule: Q01DX001 (ip), vehicle: Klucel (hydroxypropylcellulose) (HPC)) did it give?
Its T/C is 94 % of control.

And the T/C (dose: 200.0 mg/kg/injection, schedule: Q01DX001 (ip), vehicle: Klucel (hydroxypropylcellulose) (HPC))?
The T/C was 95 % of control.

What does the source list for `O=CC(=O)Nc1ccc(C(=O)O)c(O)c1`?
T/C (dose: 100.0 mg/kg/injection, schedule: Q01DX009 (ip), vehicle: Klucel (hydroxypropylcellulose) (HPC)): 95 % of control; T/C (dose: 200.0 mg/kg/injection, schedule: Q01DX009 (ip), vehicle: Klucel (hydroxypropylcellulose) (HPC)): 95 % of control; T/C (dose: 400.0 mg/kg/injection, schedule: Q01DX009 (ip), vehicle: Klucel (hydroxypropylcellulose) (HPC)): 98 % of control

Which results are given for `COC(=O)CCC(OC(C)=O)C(=O)c1ccccc1` (centres undefined)?
T/C (dose: 50.0 mg/kg/injection, schedule: Q01DX009 (ip), vehicle: saline with Tween-80): 91 % of control; T/C (dose: 100.0 mg/kg/injection, schedule: Q01DX009 (ip), vehicle: saline with Tween-80): 94 % of control; T/C (dose: 200.0 mg/kg/injection, schedule: Q01DX009 (ip), vehicle: saline with Tween-80): 88 % of control

For `O=S1(=O)CC2(C1)OCCO2`, which T/C (dose: 100.0 mg/kg/injection, schedule: Q04DX002 (ip), vehicle: Klucel (hydroxypropylcellulose) (HPC)) is on record?
Its T/C is 94 % of control.

What about the T/C (dose: 200.0 mg/kg/injection, schedule: Q04DX002 (ip), vehicle: Klucel (hydroxypropylcellulose) (HPC)) of the same compound?
The T/C was 94 % of control.
